This test concerns the target GST-hRIPK1 (8-327) (Homo sapiens (Human), UniProt Q13546). Description: Fluorescent Polarization Binding (FP Binding) assay, RIPK1. The note with it: mean of at least two independent experiments. In a few lines:
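Compound displacement of 5 nM labelled ligand from 10 nM GST-hRIPK1 (8-327) was read as FP (531/595 nm) after 30 min at RT. Buffer: HEPES pH 7.5, NaCl, MgCl2, CHAPS, DTT, Pluronic; 1% DMSO final. IC50s were averaged over at least two independent runs.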

[1] abbreviates: 10 nM GST-hRIPK1 (8-327), 5 nM fluorescent-labeled ligand, RT, 30 min.

A value given as a limit tells only on which side of the number the result lay.

GST-hRIPK1 (8-327), sequence (Q13546 8-327): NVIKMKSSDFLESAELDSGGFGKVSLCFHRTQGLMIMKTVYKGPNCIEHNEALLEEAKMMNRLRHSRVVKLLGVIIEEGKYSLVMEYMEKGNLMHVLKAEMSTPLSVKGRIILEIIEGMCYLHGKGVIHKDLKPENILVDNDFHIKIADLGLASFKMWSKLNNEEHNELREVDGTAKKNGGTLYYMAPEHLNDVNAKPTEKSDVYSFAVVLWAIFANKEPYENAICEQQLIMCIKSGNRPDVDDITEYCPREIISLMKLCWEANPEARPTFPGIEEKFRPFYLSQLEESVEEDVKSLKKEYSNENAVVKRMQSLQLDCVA

A word on the IC50: it is the midpoint of a concentration-inhibition curve. Under setting [1], `CC(C)(C(=O)N1CCOc2ccccc2C1)C(F)F` [Example 7, 1-(3,5-dihydro-2H-1,4-benzoxazepin-4-yl)-3,3-difluoro-2,2-dimethyl-propan-1-one] displayed an IC50 of 0.1 to 100 nM. The same measure, in the same setting: the figure for `CSC(C)(C)C(=O)N1CCOc2c(C#N)cncc2C1` [Example 148, 4-(2-methyl-2-methylsulfanyl-propanoyl)-3,5-dihydro-2H-pyrido[3,4-f][1,4]oxazepine-9-carbonitrile] is 0.1 to 100 nM.

In the case of `CCOc1nc(N2CCC(F)(C(=O)N3CCOc4c(C#N)cncc4C3)CC2)ncc1F` [Example 178, 4-[1-(4-ethoxy-5-fluoro-pyrimidin-2-yl)-4-fluoro-piperidine-4-carbonyl]-3,5-dihydro-2H-pyrido[3,4-f][1,4]oxazepine-9-carbonitrile], under setting [1], the IC50 was 0.1 to 100 nM. In the case of `Cc1cncc2c1OCCN(C(=O)C(C)(C)C(F)F)C2` [Example 62, 3,3-difluoro-2,2-dimethyl-1-(9-methyl-3,5-dihydro-2H-pyrido[3,4-f][1,4]oxazepin-4-yl)propan-1-one], under setting [1], the IC50 was above 1000 nM.

Under setting [1], `COCCOc1nc(N2CCC(C(=O)N3CCOc4c(F)cncc4C3)CC2)ncc1F` [Example 130, (9-fluoro-3,5-dihydro-2H-pyrido[3,4-f][1,4]oxazepin-4-yl)-[1-[5-fluoro-4-(2-methoxyethoxy)pyrimidin-2-yl]-4-piperidyl]methanone] gave an IC50 of 0.1 to 100 nM. Under “GST-hRIPK1 (8-327)”, `O=C(C1CCN(c2ncc(F)cn2)C[C@@H]1F)N1CCOc2ccncc2C1` (stereo partly drawn) [Example 254, 3,5-dihydro-2H-pyrido[3,4-f][1,4]oxazepin-4-yl-[(3,4)-trans-3-fluoro-1-(5-fluoropyrimidin-2-yl)-4-piperidyl]methanone] came in with an IC50 of 100 to 1000 nM. Turning to `CC(C)(CC(F)F)C(=O)N1CCOc2c(F)cccc2C1` [Example 16, 4,4-difluoro-1-(9-fluoro-3,5-dihydro-2H-1,4-benzoxazepin-4-yl)-2,2-dimethyl-butan-1-one], the IC50 under setting [1] was in the range of 0.1 to 100 nM.

`N#Cc1cncc2c1OCCN(C(=O)C1(F)CCN(c3nccn4ncnc34)CC1)C2` [Example 206, 4-[4-fluoro-1-([1,2,4]triazolo[1,5-a]pyrazin-8-yl)piperidine-4-carbonyl]-3,5-dihydro-2H-pyrido[3,4-f][1,4]oxazepine-9-carbonitrile] returned an IC50 (GST-hRIPK1 (8-327)) of 0.1 to 100 nM. As for `N#Cc1cncc2c1OCCN(C(=O)C1(F)CCN(c3ncc4ccccc4n3)CC1)C2` [Example 97, 4-(4-fluoro-1-quinazolin-2-yl-piperidine-4-carbonyl)-3,5-dihydro-2H-pyrido[3,4-f][1,4]oxazepine-9-carbonitrile], under setting [1], the IC50 was in the range of 0.1 to 100 nM. Under setting [1], `COC1(C(=O)N2CCOc3c(C#N)cncc3C2)CCN(c2ncc(F)cn2)CC1` [Example 185, 4-[1-(5-fluoropyrimidin-2-yl)-4-methoxy-piperidine-4-carbonyl]-3,5-dihydro-2H-pyrido[3,4-f][1,4]oxazepine-9-carbonitrile] displayed an IC50 of 0.1 to 100 nM. Same read-out and setting: in the case of `N#Cc1cncc2c1OCCN(C(=O)C1(F)CCN(c3cc4ccccc4cn3)CC1)C2` [Example 199, 4-[4-fluoro-1-(3-isoquinolyl)piperidine-4-carbonyl]-3,5-dihydro-2H-pyrido[3,4-f][1,4]oxazepine-9-carbonitrile] it was 0.1 to 100 nM. Regarding `N#Cc1cncc2c1OCCN(C(=O)C1(F)CCN(c3cnc4ccccc4n3)CC1)C2` [Example 198, 4-(4-fluoro-1-quinoxalin-2-yl-piperidine-4-carbonyl)-3,5-dihydro-2H-pyrido[3,4-f][1,4]oxazepine-9-carbonitrile], the IC50 under setting [1] was 100 to 1000 nM.

Compound `CC(C)(CC(F)(F)F)C(=O)N1CCOc2c(C#N)cncc2C1` [Example 47, 4-(4,4,4-trifluoro-2,2-dimethyl-butanoyl)-3,5-dihydro-2H-pyrido[3,4-f][1,4]oxazepine-9-carbonitrile] returned an IC50 under setting [1] of 0.1 to 100 nM. Take `CC(C)(C(=O)N1CCOc2ccncc2C1)C(F)F` [Example 35, 1-(2,3-dihydropyrido[3,4-f][1,4]oxazepin-4(5H)-yl)-3,3-difluoro-2,2-dimethylpropan-1-one]: the IC50 under setting [1] was in the range of 100 to 1000 nM.

Take `O=C(C1CCN(c2ncc(F)cn2)CC1)N1CCOc2ccccc2C1` [Example 8, 3,5-dihydro-2H-1,4-benzoxazepin-4-yl-[1-(5-fluoropyrimidin-2-yl)-4-piperidyl]methanone]: the IC50 under setting [1] was in the range of 0.1 to 100 nM. Consider `CC(F)(F)C(C)(CF)C(=O)N1CCOc2c(C#N)cncc2C1` (stereo not drawn) [Example 267, 4-[3,3-Difluoro-2-(fluoromethyl)-2-methyl-butanoyl]-3,5-dihydro-2H-pyrido[3,4-f][1,4]oxazepine-9-carbonitrile], for which, for the setting “GST-hRIPK1 (8-327)”, the IC50 was in the range of 100 to 1000 nM. Under setting [1], `CC(C)(C(=O)N1CCOc2cc(C(F)(F)F)ncc2C1)C(F)F` [Example 66, 3,3-difluoro-2,2-dimethyl-1-[8-(trifluoromethyl)-3,5-dihydro-2H-pyrido[3,4-f][1,4]oxazepin-4-yl]propan-1-one] gave an IC50 above 1000 nM. Under setting [1], `CC(C)(C(=O)N1CCOc2c(C#N)cncc2C1)C1CC1C#N` (stereo not drawn) [Example 83, 4-[2-(2-cyanocyclopropyl)-2-methyl-propanoyl]-3,5-dihydro-2H-pyrido[3,4-f][1,4]oxazepine-9-carbonitrile] registered a 50% inhibitory concentration (IC50) above 1000 nM. On to `CCC(C)(OC)C(=O)N1CCOc2c(C#N)cncc2C1` (single isomer, unassigned) [Example 282, 4-(2-Methoxy-2-methyl-butanoyl)-3,5-dihydro-2H-pyrido[3,4-f][1,4]oxazepine-9-carbonitrile], for which the IC50 (GST-hRIPK1 (8-327)) was 100 to 1000 nM. For `CC(C)(C(=O)N1CCOc2c(C#N)cncc2C1)[C@H]1C[C@@H](Cn2nccn2)C1` [Example 291, cis-4-[2-methyl-2-[3-(triazol-2-ylmethyl)cyclobutyl]propanoyl]-3,5-dihydro-2H-pyrido[3,4-f][1,4]oxazepine-9-carbonitrile], where the note is “GST-hRIPK1 (8-327)”, the IC50 is 100 to 1000 nM. Consider `CC1(C(=O)N2CCOc3c(C#N)cncc3C2)CCN(c2ncccn2)CC1(F)F` (single isomer, unassigned) [Example 297, 4-[3,3-Difluoro-4-methyl-1-pyrimidin-2-yl-piperidine-4-carbonyl]-3,5-dihydro-2H-pyrido[3,4-f][1,4]oxazepine-9-carbonitrile], for which the IC50 (GST-hRIPK1 (8-327)) lay within 0.1 to 100 nM.

Compound `COc1nc(N2CCC(OC)(C(=O)N3CCOc4ccncc4C3)CC2)ncc1F` [Example 235, 3,5-dihydro-2H-pyrido[3,4-f][1,4]oxazepin-4-yl-[1-(5-fluoro-4-methoxy-pyrimidin-2-yl)-4-methoxy-4-piperidyl]methanone] yielded an IC50 (GST-hRIPK1 (8-327)) of 0.1 to 100 nM. For the compound `N#Cc1cncc2c1OCCN(C(=O)C13CC(C1)C3)C2` [Example 44, 4-(bicyclo[1.1.1]pentane-3-carbonyl)-3,5-dihydro-2H-pyrido[3,4-f][1,4]oxazepine-9-carbonitrile], the half-maximal inhibitory concentration (IC50) under setting [1] was above 1000 nM. For the setting “GST-hRIPK1 (8-327)”, `CC1(C(=O)N2CCOc3c(C#N)cncc3C2)CCN(c2ncc(Cl)cn2)CC1(F)F` (stereo not drawn) [Example 215, 4-(1-(5-chloropyrimidin-2-yl)-3,3-difluoro-4-methylpiperidine-4-carbonyl)-2,3,4,5-tetrahydropyrido[3,4-f][1,4]oxazepine-9-carbonitrile] came in with an IC50 of 0.1 to 100 nM. On the same count and under the same terms, the figure for `N#Cc1cncc2c1OCCN(C(=O)C1CCN(c3ncc(F)cn3)C[C@@H]1F)C2` (stereo partly drawn) [Example 241, 4-[(3,4)-cis-3-fluoro-1-(5-fluoropyrimidin-2-yl)piperidine-4-carbonyl]-3,5-dihydro-2H-pyrido[3,4-f][1,4]oxazepine-9-carbonitrile] is 100 to 1000 nM; for `CC(C)(C(=O)N1CCOc2c(C#N)cncc2C1)[C@H]1C[C@H](Cn2ccnn2)C1` [Example 292, trans-4-[2-methyl-2-[3-(triazol-1-ylmethyl)cyclobutyl]propanoyl]-3,5-dihydro-2H-pyrido [3,4-f][1,4]oxazepine-9-carbonitrile] it is above 1000 nM; for `COc1nc(N2CCC(OC)(C(=O)N3CCOc4c(C#N)cncc4C3)CC2)c(F)cc1F` [Example 289, 4-[1-(3,5-difluoro-6-methoxy-2-pyridyl)-4-methoxy-piperidine-4-carbonyl]-3,5-dihydro-2H-pyrido [3,4-f][1,4]oxazepine-9-carbonitrile] it is 0.1 to 100 nM. Regarding `N#Cc1cncc2c1OCCN(C(=O)C1CCN(c3ncc(F)cn3)CC1O)C2` (stereo not drawn) [Example 211, 4-[1-(5-fluoropyrimidin-2-yl)-3-hydroxy-piperidine-4-carbonyl]-3,5-dihydro-2H-pyrido[3,4-f][1,4]oxazepine-9-carbonitrile], for the setting “GST-hRIPK1 (8-327)”, the IC50 fell in the range of 100 to 1000 nM. Turning to `CC(F)C(C)(C)C(=O)N1CCOc2c(C#N)cncc2C1` (single isomer, unassigned) [Example 270, 4-(3-fluoro-2,2-dimethyl-butanoyl)-3,5-dihydro-2H-pyrido[3,4-f][1,4]oxazepine-9-carbonitrile], the IC50 (GST-hRIPK1 (8-327)) lay in the range of 0.1 to 100 nM. As for `COc1ccnc(N2CCC(F)(C(=O)N3CCOc4c(C#N)cncc4C3)CC2)n1` [Example 103, 4-[4-fluoro-1-(4-methoxypyrimidin-2-yl)piperidine-4-carbonyl]-3,5-dihydro-2H-pyrido[3,4-f][1,4]oxazepine-9-carbonitrile], the IC50 under setting [1] lay in the range of 0.1 to 100 nM.

On to `CC(C)(C(=O)N1CCOc2c(C#N)ccc(F)c2C1)C(F)F` [Example 2, 4-(3,3-difluoro-2,2-dimethyl-propanoyl)-6-fluoro-3,5-dihydro-2H-1,4-benzoxazepine-9-carbonitrile], for which the IC50 under setting [1] lay within 0.1 to 100 nM.

`CCC1(C(=O)N2CCOc3c(C#N)cncc3C2)CCC1` [Example 64, 4-(1-ethylcyclobutanecarbonyl)-3,5-dihydro-2H-pyrido[3,4-f][1,4]oxazepine-9-carbonitrile]: the IC50 under setting [1] fell in the range of 100 to 1000 nM. For `N#Cc1cncc2c1OCCN(C(=O)C1(F)CCN(c3ccc(F)cn3)CC1)C2` [Example 188, 4-[4-fluoro-1-(5-fluoro-2-pyridyl)piperidine-4-carbonyl]-3,5-dihydro-2H-pyrido[3,4-f][1,4]oxazepine-9-carbonitrile], the IC50 under setting [1] fell in the range of 0.1 to 100 nM.
